What was measured:
human CB1 receptor [1] = target: T1, human CB1 receptor (Homo sapiens, UniProt P21554); assay: CB1 radioligand competitive binding assay ([3H]CP 55,940 displacement); conditions: for Selectivity CB1: fold difference in selectivity between CB1 and CB2 binding, printed in the column of the receptor with higher affinity, 1.00 = about the same affinity
T1 construct: host or cells: CHO-K1

human CB2 receptor = target: T2, human CB2 receptor (Homo sapiens, UniProt P34972); assay: CB2 radioligand competitive binding assay ([3H]CP 55,940 displacement); conditions: for Selectivity CB2: fold difference in selectivity between CB1 and CB2 binding, printed in the column of the receptor with higher affinity, 1.00 = about the same affinity
T2 construct: host or cells: CHO-K1
T2 sequence (P34972 whole entry): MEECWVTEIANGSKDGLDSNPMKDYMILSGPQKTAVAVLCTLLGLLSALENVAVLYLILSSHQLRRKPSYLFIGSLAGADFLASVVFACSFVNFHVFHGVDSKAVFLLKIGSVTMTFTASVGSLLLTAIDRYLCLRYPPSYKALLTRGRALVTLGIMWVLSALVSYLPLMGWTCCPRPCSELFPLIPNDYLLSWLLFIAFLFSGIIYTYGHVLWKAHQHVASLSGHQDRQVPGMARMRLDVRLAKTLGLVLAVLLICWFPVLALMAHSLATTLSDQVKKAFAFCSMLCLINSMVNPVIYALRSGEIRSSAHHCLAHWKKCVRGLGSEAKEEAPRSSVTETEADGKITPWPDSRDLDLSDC
Experimental: Compounds of the present disclosure were tested for CB1 receptor binding affinity and for CB2 receptor binding affinity. As used herein, “binding affinity” is represented by the IC50 value, which was experimentally determined as described herein. The lower the IC50 value the higher the binding affinity. A compound of the present disclosure may be said to have “binding selectivity” if it has a higher binding affinity for one receptor compared to the other.
The membranes were prepared from CHO-K1 (Chinese hamster ovary) cells stably transfected with the human CB2 receptor (Cat.# ES-111-C; Perkin Elmer, Boston, Mass.). The cells were grown adherently and maintained in Ham's F12 medium containing 10% fetal bovine serum (FBS), penicillin, streptomycin and geneticin (G418) at 37° C. in a humid atmosphere of 5% CO2 following the manufacturer's instructions.
For membrane preparation the cells were washed with PBS and scraped off the plates in cold homogenization buffer (25 mM HEPES (pH 7.4), 2 mM EDTA) containing protease inhibitor cocktail (Sigma Cat.# P8340). The cell suspension was homogenized with a Pro-PK-01200D Polytron Homogenizer (Pro Scientific) and then centrifuged for 30 min at 120,000×g. The supernatant was discarded and the pellet was re-suspended in the homogenization buffer and stored at −80° C. until the time of use.
In this experiment, 3H radiolabeled CP 55,940, i.e. [3H]CP 55,940 (Perkin Elmer, Boston, Mass.), was used as a radioligand for the CB2 receptor to determine the binding affinity of compounds for the CB2 receptor (Scheme 7; above).
The competition binding experiments (single dose and dose-response) were performed by incubating 0.6 nM of [3H]CP55,940 (specific activity 101 Ci/mmol, Perkin Elmer) and different concentrations of compounds disclosed herein with membranes prepared as above from CHO-K1 cells expressing human CB2 receptor (1 μg of protein/well), 50 mM Tris-HCl (pH 7.4), 5 mM MgCl2, 1 mM CaCl2, and 2 mg/mL BSA.
For the single dose experiments, the compound stocks (usually 10 mM in DMSO) were diluted to working stocks in the binding buffer to give the final compound concentrations of 10 μM and 1 μM. For the dose-response experiments the test compounds were sequentially diluted to provide the desired concentration range for the IC50 determination. In each case the compounds were pre-incubated with the membrane for 20 min, before adding the radioligand.
After incubation with the radioligand for 60 min at 37° C., the incubation was terminated by rapid filtration of assay mixture through MultiScreen®HTS^+ 96-well filter plates (Millipore, Cat.# MSFCNXB), pre-soaked for 60 min with 50 mM Tris-HCl (pH 7.4) containing 0.33% polyethylenimine (PEI). The nonspecific binding (NSB) was determined in the presence of 10 μM unlabelled CP55,940. After drying the filter plate at 50° C. for at least 60 min, the filter-bound radioactivity was determined by scintillation spectrometry using the 1450 MicroBeta Plate Counter (Perkin Elmer, Boston, Mass.). From the dose-response experiments, the IC50 values were determined (see Table 1, CB2 IC50).

human CB1 receptor [2] = target: T1, human CB1 receptor; assay: PathHunter β-arrestin functional assay, CB1 receptor, agonist mode; assay type: cell-based; conditions: PathHunter CHO-K1 CNR1 β-Arrestin cells; normalized to CP55,940
Excerpt: (§1) In the PathHunter® β-Arrestin system from DiscoveRx (Eurofins, Fremont, Calif.), a small peptide, the ProLink™ (PK), is fused to the intracellular sequence of a GPCR target, and a complementing peptide, the enzyme acceptor (EA) fragment, is fused to β-arrestin. After binding to its specific ligand, the GPCR target recruits β-arrestin, forcing the complementation of the two β-galactosidase enzyme fragments (EA and PK) to produce a functional β-galactosidase enzyme. The enzyme activity, and thus the amount of ligand bound to the GPCR, is detected with a single addition of a reagent cocktail to lyse the cells and produce a chemiluminescent signal before being analyzed using a traditional plate reader.
(§2) PathHunter® CHO-K1 CNR1 β-Arrestin cells (DiscoverRx, cat. Number 93-0959C2) stably expressing CB1 receptor (CB1R) were grown in Ham's F12 medium containing 10% fetal bovine serum (FBS), 1% penicillin/streptomycin, 300 μg/mL Hygromycin B and 800 μg/mL geneticin (G418) and maintained in 37° C. incubators at 5% CO2. […]
(§3) The incubation was terminated by adding the detection reagent (19 parts of 1% CHAPS, 5 parts Emerald-II and 1 part Galacton-Star), equivalent to 50% of the assay volume to each wells. Plates were incubated for 1 hour in the dark at room temperature, followed by chemiluminescence detection using a microplate reader.
(§4) Data were analysed by generating nonlinear regression curves. […]

human CB1 receptor [3] = target: T1, human CB1 receptor; assay: PathHunter β-arrestin functional assay, CB1 receptor, antagonist mode; assay type: cell-based
Excerpt: as §1, §2, §3, §4

T1 sequence (P21554 whole entry): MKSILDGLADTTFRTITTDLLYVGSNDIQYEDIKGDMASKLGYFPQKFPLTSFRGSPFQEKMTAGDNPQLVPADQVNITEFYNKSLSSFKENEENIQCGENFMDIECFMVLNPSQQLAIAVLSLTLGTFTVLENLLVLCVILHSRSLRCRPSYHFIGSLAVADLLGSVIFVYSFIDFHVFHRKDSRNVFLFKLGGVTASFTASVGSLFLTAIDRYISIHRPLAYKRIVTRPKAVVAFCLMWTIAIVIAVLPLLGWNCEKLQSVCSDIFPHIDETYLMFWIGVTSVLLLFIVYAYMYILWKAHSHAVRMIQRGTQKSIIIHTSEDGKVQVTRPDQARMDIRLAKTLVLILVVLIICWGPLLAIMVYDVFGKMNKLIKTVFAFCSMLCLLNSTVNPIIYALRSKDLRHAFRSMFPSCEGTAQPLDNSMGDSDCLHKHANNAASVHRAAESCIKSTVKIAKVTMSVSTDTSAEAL

CCCCCc1cc2c(c(O)c1-c1cccnc1)[C@@H]1C=C(C)CC[C@H]1C(C)(C)O2 [Compound 12b, 6,6,9-trimethyl-3-pentyl-2-(pyridin-3-yl)-6a,7,8,10a-tetrahydro-6H-benzo[c]chromen-1-ol]
IC50 (human CB1 receptor [1]): 500 to 990 nM | IC50 (human CB2 receptor): 500 to 990 nM | Selectivity CB2 (human CB2 receptor): 1.57 fold | activity towards the human CB1 receptor, agonist mode (human CB1 receptor [2]): minimal to no activity

CCCCCc1cc2c(c(O)c1-c1cncnc1)[C@@H]1C=C(C)CC[C@H]1C(C)(C)O2 [Compound 13b, 6,6,9-trimethyl-3-pentyl-2-(pyrimidin-5-yl)-6a,7,8,10a-tetrahydro-6H-benzo [c] chromen-1-ol]
IC50 (human CB1 receptor [1]): > 1000 nM | IC50 (human CB2 receptor): 500 to 990 nM | Selectivity CB2 (human CB2 receptor): 5.00 fold

CCCCCc1cc2c(c(O)c1-c1ccncc1)[C@@H]1C=C(C)CC[C@H]1C(C)(C)O2 [Compound 14b, 6,6,9-trimethyl-3-pentyl-2-(pyridin-4-yl)-6a,7,8,10a-tetrahydro-6H-benzo[c]chromen-1-ol]
IC50 (human CB1 receptor [1]): 100 to 490 nM | IC50 (human CB2 receptor): 100 to 490 nM | Selectivity CB2 (human CB2 receptor): 1.77 fold

CCCCCc1cc2c(c(O)c1-c1ccco1)[C@@H]1C=C(C)CC[C@H]1C(C)(C)O2 [Compound 15b, 2-(furan-2-yl)-6,6,9-trimethyl-3-pentyl-6a,7,8,10a-tetrahydro-6H-benzo[c]chromen-1-ol]
IC50 (human CB1 receptor [1]): < 100 nM | Selectivity CB1 (human CB1 receptor [1]): 1.00 fold | IC50 (human CB2 receptor): < 100 nM | Selectivity CB2 (human CB2 receptor): 1.00 fold

CCCCCc1cc2c(c(O)c1-c1ccsc1)[C@@H]1C=C(C)CC[C@H]1C(C)(C)O2 [Compound 17b, 6,6,9-trimethyl-3-pentyl-2-(thiophen-3-yl)-6a,7,8,10a-tetrahydro-6H-benzo[c]chromen-1-ol]
IC50 (human CB1 receptor [1]): 100 to 490 nM | IC50 (human CB2 receptor): < 100 nM | Selectivity CB2 (human CB2 receptor): 3.43 fold

CCCCCc1cc2c(c(O)c1-c1cncs1)[C@@H]1C=C(C)CC[C@H]1C(C)(C)O2 [Compound 18b]
IC50 (human CB1 receptor [1]): > 1000 nM | Selectivity CB1 (human CB1 receptor [1]): 1.00 fold | IC50 (human CB2 receptor): > 1000 nM | Selectivity CB2 (human CB2 receptor): 1.00 fold

CCCCCc1cc2c(c(O)c1-c1ccnn1C)[C@@H]1C=C(C)CC[C@H]1C(C)(C)O2 [Compound 33b, 6,6,9-trimethyl-2-(1-methyl-1H-pyrazol-5-yl)-3-pentyl-6a,7,8,10a-tetrahydro-6H-benzo[c]chromen-1-ol]
IC50 (human CB1 receptor [1]): 100 to 490 nM | IC50 (human CB2 receptor): 100 to 490 nM | Selectivity CB2 (human CB2 receptor): 1.61 fold

CCCCCc1cc2c(c(O)c1-c1cc3ccccc3o1)[C@@H]1C=C(C)CC[C@H]1C(C)(C)O2 [Compound 34b, 2-(benzofuran-2-yl)-6,6,9-trimethyl-3-pentyl-6a,7,8,10a-tetrahydro-6H-benzo[c]chromen-1-ol]
IC50 (human CB1 receptor [1]): 500 to 990 nM | IC50 (human CB2 receptor): 100 to 490 nM | Selectivity CB2 (human CB2 receptor): 4.41 fold

CCCCCc1cc2c(c(O)c1-c1cn[nH]c1)[C@@H]1C=C(C)CC[C@H]1C(C)(C)O2 [Compound 35b, 6,6,9-trimethyl-3-pentyl-2-(1H-pyrazol-4-yl)-6a,7,8,10a-tetrahydro-6H-benzo[c]chromen-1-ol]
IC50 (human CB1 receptor [1]): > 1000 nM | IC50 (human CB2 receptor): 500 to 990 nM | Selectivity CB2 (human CB2 receptor): 2.64 fold

CCCCCc1cc2c(c(O)c1-c1cc3ccccc3s1)[C@@H]1C=C(C)CC[C@H]1C(C)(C)O2 [Compound 36b, 2-(benzothiophen-2-yl)-6,6,9-trimethyl-3-pentyl-6a,7,8,10a-tetrahydrobenzo[c]chromen-1-ol]
IC50 (human CB1 receptor [1]): > 1000 nM | IC50 (human CB2 receptor): 100 to 490 nM | Selectivity CB2 (human CB2 receptor): 5.67 fold | activity towards the human CB1 receptor, agonist mode (human CB1 receptor [2]): minimal to no activity | IC50 (human CB1 receptor [3]): ~3 µM

From patent US20220242856A1, “CANNABINOID DERIVATIVES” (CANOPY GROWTH CORPORATION, priority 2019, published 2022)
